According to PMC3236199, “Development of Derivatives of 3, 3′-Diindolylmethane as Potent Leishmania donovani Bi-Subunit Topoisomerase IB Poisons” (PLoS ONE, 2011):

What was measured:
LdTOP1LS = test: Plasmid cleavage assay; format: biochemical, Leishmania donovani; conditions: 50 µM, pHOT1 DNA
Experimental: Cleavage assay was carried out as described previously. Briefly, 50 fmol of pHOT1 supercoiled DNA (containing topoisomerase I cleavage site) and 100 fmol of reconstituted LdTOP1LS were incubated in standard reaction mixture (50 µl) containing 50 mM Tris/HCl (pH 7.5), 100 mM KCl, 10 mM MgCl2, 0.5 mM DTT, 0.5 mM EDTA and 30 µg/ml BSA in the presence of various concentrations of drugs at 37°C for 30 min. The reactions were terminated by adding 1% SDS and 150 µg/ml proteinase K and further incubated for 1 h at 37°C. DNA samples were electrophoresed in a 1% agarose gel containing 0.5 µg/ml EtBr.
The effect of DIM and its derivatives on L. donovani topoisomerase I was examined by plasmid DNA cleavage assay as described. The topoisomerase reaction has three general mechanistic steps: (i) binding of enzyme to the substrate DNA, (ii) single strand breakage and subsequent strand rotation through the break leading to change in linking number, and (iii) strand religation. The second step of reaction is the introduction of a single-stranded nick in the phosphodiester bond of the DNA, through which an intact strand is allowed to pass. […]

[1] = test system: L. donovani topoisomerase I; test: Immunoband depletion assay, topoisomerase I; format: cell-based, Leishmania donovani; conditions: preincubation with 20 µM DHBA before DIM, DPDIM, DMDIM or DMODIM
Experimental: Leishmania cells (3×10^7) were cultured in absence and presence of the drugs. Nuclear fractions were isolated as described. Briefly, cells were suspended in hypotonic buffer (10 mM Tris-HCl, pH 7.5, 1 mM EDTA, 0.1 mM EGTA, 1 mM PMSF, 1 mM benzamidine hydrochloride and 5 mM DTT) and homogenized. The homogenate was centrifuged for 10 min at 10,000 g. The pellets were washed and used as the source of nuclear fraction. Thereafter, the nuclear fractions were lysed with 1% SDS and subjected to SDS-PAGE (10%). The proteins were electrophoretically transferred to nitrocellulose membranes and immumobloting of immobilized proteins were carried out using a rabbit polyclonal antibody raised against LdTOP1S for topoisomerase I and ATPase domain of L. donovani topoisomerase II [8].
We have reported earlier that DIM induces topoisomerase I and not topoisomerase II-mediated cleavable complex formation in L. donovani. To investigate the ability of DIM derivatives to induce in vivo covalent complex formation between topoisomerase I and DNA in the Leishmania parasites we performed the immunoband depletion experiments with L. donovani promastigotes. Nuclear fractions were prepared from untreated as well as drug-treated promastigotes and subjected to SDS-PAGE. If topoisomerase I can form a covalent complex with genomic DNA inside the cells, then topoisomerase I-DNA cleavable complex cannot enter into the gel. […] The presence of topoisomerase I was detected by immunoblotting as described in ‘Materials and Methods’. It was observed that the immunoband of topoisomerase I disappeared in presence of 20 µM of DIM, DPDIM, DMDIM and DMODIM for 6 h incubation respectively (lanes 2–5). […] It should be mentioned here that topoisomerase I of Leishmania is a heterodimer and the catalytic site (SKXXY) is present in the small subunit of enzyme (LdTOP1S), which is involved in the formation of topoisomerase I-DNA covalent complex. So we have used the antibody raised against the small subunit of L. donovani topoisomerase I to study the immunoband depletion assay.
Figure 6 DIM-derivatives induce in vivo formation of topoisomerase-DNA cleavable complex within the cells. Stabilization of topoisomerase-I mediated cleavable complex was determined by immunoband depletion assay. Top panel: Immunoband depletion of L. donovani topoisomerase I, using an antibody raised against […]. Leishmanial cells were treated with 0.2% DMSO alone (lane 1), 20 µM each of DIM (lane 2), DPDIM (lane 3), DMDIM (lane 4) and DMODIM (lane 5) respectively. Lanes 6–9, preincubation with 20 µM DHBA before treatment with DIM, DPDIM, DMDIM and DMODIM respectively. Bottom panel: β-tubulin loading control.

SMILES | conversion of closed circular DNA (form I) to nicked circular DNA (form II) (LdTOP1LS) | immunoband of topoisomerase I after preincubation before treatment with drugs [1]
CC[C@@]1(O)C(=O)OCc2c1cc1n(c2=O)Cc2cc3ccccc3nc2-1 [CPT, camptothecin, reference compound] | totally converted to nicked circular DNA | 
CC(C)[C@@H]1CC[C@]2(C(=O)O)CC[C@]3(C)C(CCC4[C@@]5(C)CC[C@H](O)C(C)(C)C5CC[C@]43C)C12 (some centres unmarked) [DHBA, reference compound] |  | reappearance of immunoband
